Data from patent US20230022400A1, “IMMUNOMODULATORS” (Bristol-Myers Squibb Company, priority 2019, published 2023).
Where a SMILES comes first, the peptide text is derived from it. Bridges are numbered along the chain shown (N, C = ends). [ ]: non-standard residue; d: D form. The star is where a group is joined. Trp(1-CH2CO2Me) = COC(=O)Cn1cc(C[C@H](N)C(=O)O)c2ccccc21; Trp(1-CH2COOH) = N[C@@H](Cc1cn(CC(=O)O)c2ccccc12)C(=O)O; X7 = Cc1ccc(-n2c3ccccc3c3c(*)nc(C)nc32)nc1; X22 = Cc1ccc2c(c1)[nH]c1nc(Cl)nc(*)c12; X19 = c1ccc(N2CCN(c3ncnc(*)n3)CC2)cc1; Hyp = O=C(O)[C@@H]1C[C@@H](O)CN1; X8 = Cn1cnc2c(Cl)nc3sc(*)nc3c21; X10 = c1ccc2c(c1)sc1ncnc(*)c12; NMeNle = CCCC[C@H](NC)C(=O)O; X18 = c1ccc(-c2ccnc(*)n2)cc1; NMeA = CN[C@@H](C)C(=O)O; X14 = Clc1cccc2sc(*)nc12; Dab = NCC[C@H](N)C(=O)O; Dap = NC[C@H](N)C(=O)O; X1 = c1ccc2sc(*)nc2c1; X11 = COc1ccnc(*)n1

target: T1, PD-1/PD-L1 interaction (PD-1-Ig / PD-L1-His) (Homo sapiens, UniProt Q9NZQ7); experiment: PD-1/PD-L1 Homogenous Time-Resolved Fluorescence (HTRF) binding assay; conditions: PD-L1-His 10 nM final, PD-1-Ig 20 nM final; inhibitors pre-incubated with PD-L1-His for 15 m
T1 construct: TVMV protease site (linker) (C); made in house; host or cells: HEK293T cells
Text: The ability of the compounds of formula (I) to bind to PD-L1 was investigated using a PD-1/PD-L1 Homogenous Time-Resolved Fluorescence (HTRF) binding assay.
The interaction of PD-1 and PD-L1 can be assessed using soluble, purified preparations of the extracellular domains of the two proteins. The PD-1 and PD-L1 protein extracellular domains were expressed as fusion proteins with detection tags, for PD-1, the tag was the Fc portion of Immunoglobulin (PD-1-Ig) and for PD-L1 it was the 6 histidine motif (PD-L1-His). All binding studies were performed in an HTRF assay buffer consisting of dPBS supplemented with 0.1% […] bovine serum albumin and 0.05% (v/v) Tween-20. For the h/PD-L1-His binding assay, inhibitors were pre-incubated with PD-L1-His (10 nM final) for 15 m in 4 μl of assay buffer, followed by addition of PD-1-Ig (20 nM final) in 1 μl of assay buffer and further incubation for 15 m. HTRF detection was achieved using europium crypate-labeled anti-Ig (1 nM final) and allophycocyanin (APC) labeled anti-His (20 nM final). Antibodies were diluted in HTRF detection buffer and 5 μl was dispensed on top of the binding reaction. The reaction mixture was allowed to equilibrate for 30 minutes and the resulting signal (665 nm/620 nm ratio) was obtained using an EnVision fluorometer. Additional binding assays were established between the human proteins PD-1-Ig/PD-L2-His (20 & 5 nM, respectively) and CD80-His/PD-L1-Ig (100 & 10 nM, respectively).
Recombinant Proteins: Human PD-1 (25-167) with a C-terminal human Fc domain of immunoglobulin G (Ig) epitope tag [hPD-1 (25-167)-3S-IG] and human PD-L1 (18-239) with a C-terminal His epitope tag [hPD-L1(18-239)-TVMV-His] were expressed in HEK293T cells and purified sequentially by ProteinA affinity chromatography and size exclusion chromatography. Human PD-L2-His and CD80-His was obtained through commercial sources.
Table 1 lists the IC50 values for representative examples of this disclosure measured in the PD-1/PD-L1 Homogenous Time-Resolved Fluorescence (HTRF) binding assay.

T1 sequence (Q9NZQ7 18-239): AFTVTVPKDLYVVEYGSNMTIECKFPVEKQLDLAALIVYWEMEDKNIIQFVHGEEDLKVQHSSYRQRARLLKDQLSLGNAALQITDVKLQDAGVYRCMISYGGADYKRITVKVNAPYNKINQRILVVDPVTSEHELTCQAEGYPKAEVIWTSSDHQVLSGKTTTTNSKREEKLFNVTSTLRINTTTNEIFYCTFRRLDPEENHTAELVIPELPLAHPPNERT

| Structure (SMILES) | IC50 |
| --- | --- |
| CCCC[C@H]1C(=O)N(C)[C@@H](CCCC)C(=O)N[C@@H](CC(C)C)C(=O)N[C@H](C(=O)NCC(N)=O)CSCC(=O)N[C@@H](Cc2ccc(O)cc2)C(=O)N(C)[C@@H](C)C(=O)N[C@@H](CC(N)=O)C(=O)N2CCC[C@H]2C(=O)N[C@@H](CNc2nc3c(Cl)cccc3s2)C(=O)N[C@@H](CC(C)C)C(=O)N2C[C@H](O)C[C@H]2C(=O)N[C@@H](Cc2c[nH]c3ccccc23)C(=O)N[C@@H](CCNc2nc3c(Cl)cccc3s2)C(=O)N[C@@H](Cc2cn(CC(=O)O)c3ccccc23)C(=O)N1C [Compound 11006] ({CH2CO}-Y[NMeA]NP[Dap](X14)L[Hyp]W[Dab](X14)[Trp(1-CH2COOH)][NMeNle][NMeNle]LCG-NH2; thioether N-14) | 7.9 nM |
| CCCC[C@H]1C(=O)N(C)[C@@H](CCCC)C(=O)N[C@@H](CC(C)C)C(=O)N[C@H](C(=O)NCC(N)=O)CSCC(=O)N[C@@H](Cc2ccc(O)cc2)C(=O)N(C)[C@@H](C)C(=O)N[C@@H](CC(N)=O)C(=O)N2CCC[C@H]2C(=O)N[C@@H](CNc2nc3ccccc3s2)C(=O)N[C@@H](CC(C)C)C(=O)N2C[C@H](O)C[C@H]2C(=O)N[C@@H](Cc2c[nH]c3ccccc23)C(=O)N[C@@H](CCNc2nc3ccccc3s2)C(=O)N[C@@H](Cc2cn(CC(=O)O)c3ccccc23)C(=O)N1C [Compound 11002] ({CH2CO}-Y[NMeA]NP[Dap](X1)L[Hyp]W[Dab](X1)[Trp(1-CH2COOH)][NMeNle][NMeNle]LCG-NH2; thioether N-14) | 4.5 nM |
| CCCC[C@H]1C(=O)N(C)[C@@H](CCCC)C(=O)N[C@@H](CC(C)C)C(=O)N[C@H](C(=O)NCC(N)=O)CSCC(=O)N[C@@H](Cc2ccc(O)cc2)C(=O)N(C)[C@@H](C)C(=O)N[C@@H](CC(N)=O)C(=O)N2CCC[C@H]2C(=O)N[C@@H](CNc2nc(C)nc3c2c2ccccc2n3-c2ccc(C)cn2)C(=O)N[C@@H](CC(C)C)C(=O)N2C[C@H](O)C[C@H]2C(=O)N[C@@H](Cc2c[nH]c3ccccc23)C(=O)N[C@@H](CCN)C(=O)N[C@@H](Cc2cn(CC(=O)O)c3ccccc23)C(=O)N1C [Compound 21005] ({CH2CO}-Y[NMeA]NP[Dap](X7)L[Hyp]W[Dab][Trp(1-CH2COOH)][NMeNle][NMeNle]LCG-NH2; thioether N-14) | 25 nM |
| CCCC[C@H]1C(=O)N(C)[C@@H](CCCC)C(=O)N[C@@H](CC(C)C)C(=O)N[C@H](C(=O)NCC(N)=O)CSCC(=O)N[C@@H](Cc2ccc(O)cc2)C(=O)N(C)[C@@H](C)C(=O)N[C@@H](CC(N)=O)C(=O)N2CCC[C@H]2C(=O)N[C@@H](CNc2ncnc(N3CCN(c4ccccc4)CC3)n2)C(=O)N[C@@H](CC(C)C)C(=O)N2C[C@H](O)C[C@H]2C(=O)N[C@@H](Cc2c[nH]c3ccccc23)C(=O)N[C@@H](CCNc2ncnc(N3CCN(c4ccccc4)CC3)n2)C(=O)N[C@@H](Cc2cn(CC(=O)O)c3ccccc23)C(=O)N1C [Compound 1009] ({CH2CO}-Y[NMeA]NP[Dap](X19)L[Hyp]W[Dab](X19)[Trp(1-CH2COOH)][NMeNle][NMeNle]LCG-NH2; thioether N-14) | 9.8 nM |
| CCCC[C@H]1C(=O)N(C)[C@@H](CCCC)C(=O)N[C@@H](CC(C)C)C(=O)N[C@H](C(=O)NCC(N)=O)CSCC(=O)N[C@@H](Cc2ccc(O)cc2)C(=O)N(C)[C@@H](C)C(=O)N[C@@H](CC(N)=O)C(=O)N2CCC[C@H]2C(=O)N[C@@H](CNc2ncnc3sc4ccccc4c23)C(=O)N[C@@H](CC(C)C)C(=O)N2C[C@H](O)C[C@H]2C(=O)N[C@@H](Cc2c[nH]c3ccccc23)C(=O)N[C@@H](CCNc2ncnc3sc4ccccc4c23)C(=O)N[C@@H](Cc2cn(CC(=O)O)c3ccccc23)C(=O)N1C [Compound 21015] ({CH2CO}-Y[NMeA]NP[Dap](X10)L[Hyp]W[Dab](X10)[Trp(1-CH2COOH)][NMeNle][NMeNle]LCG-NH2; thioether N-14) | 18 nM |
| CCCC[C@H]1C(=O)N(C)[C@@H](CCCC)C(=O)N[C@@H](CC(C)C)C(=O)N[C@H](C(=O)NCC(N)=O)CSCC(=O)N[C@@H](Cc2ccc(O)cc2)C(=O)N(C)[C@@H](C)C(=O)N[C@@H](CC(N)=O)C(=O)N2CCC[C@H]2C(=O)N[C@@H](CNc2nccc(-c3ccccc3)n2)C(=O)N[C@@H](CC(C)C)C(=O)N2C[C@H](O)C[C@H]2C(=O)N[C@@H](Cc2c[nH]c3ccccc23)C(=O)N[C@@H](CCNc2nccc(-c3ccccc3)n2)C(=O)N[C@@H](Cc2cn(CC(=O)O)c3ccccc23)C(=O)N1C [Compound 1003] ({CH2CO}-Y[NMeA]NP[Dap](X18)L[Hyp]W[Dab](X18)[Trp(1-CH2COOH)][NMeNle][NMeNle]LCG-NH2; thioether N-14) | 8.3 nM |

Results, then the molecule that gave them:

| IC50 | Structure (SMILES) |
| --- | --- |
| 5.7 nM | CCCC[C@H]1C(=O)N(C)[C@@H](CCCC)C(=O)N[C@@H](CC(C)C)C(=O)N[C@H](C(=O)NCC(N)=O)CSCC(=O)N[C@@H](Cc2ccc(O)cc2)C(=O)N(C)[C@@H](C)C(=O)N[C@@H](CC(N)=O)C(=O)N2CCC[C@H]2C(=O)N[C@@H](CNc2nc3c(nc(Cl)c4ncn(C)c43)s2)C(=O)N[C@@H](CC(C)C)C(=O)N2C[C@H](O)C[C@H]2C(=O)N[C@@H](Cc2c[nH]c3ccccc23)C(=O)N[C@@H](CCNc2nc3c(nc(Cl)c4ncn(C)c43)s2)C(=O)N[C@@H](Cc2cn(CC(=O)O)c3ccccc23)C(=O)N1C [Compound 21004] ({CH2CO}-Y[NMeA]NP[Dap](X8)L[Hyp]W[Dab](X8)[Trp(1-CH2COOH)][NMeNle][NMeNle]LCG-NH2; thioether N-14) |
| 7.9 nM | CCCC[C@H]1C(=O)N(C)[C@@H](CCCC)C(=O)N[C@@H](CC(C)C)C(=O)N[C@H](C(=O)NCC(N)=O)CSCC(=O)N[C@@H](Cc2ccc(O)cc2)C(=O)N(C)[C@@H](C)C(=O)N[C@@H](CC(N)=O)C(=O)N2CCC[C@H]2C(=O)N[C@@H](CNc2nc3ccccc3s2)C(=O)N[C@@H](CC(C)C)C(=O)N2C[C@H](O)C[C@H]2C(=O)N[C@@H](Cc2c[nH]c3ccccc23)C(=O)N[C@@H](CCN)C(=O)N[C@@H](Cc2cn(CC(=O)O)c3ccccc23)C(=O)N1C [Compound 11012] ({CH2CO}-Y[NMeA]NP[Dap](X1)L[Hyp]W[Dab][Trp(1-CH2COOH)][NMeNle][NMeNle]LCG-NH2; thioether N-14) |
| 4.4 nM | CCCC[C@H]1C(=O)N(C)[C@@H](CCCC)C(=O)N[C@@H](CC(C)C)C(=O)N[C@H](C(=O)NCC(N)=O)CSCC(=O)N[C@@H](Cc2ccc(O)cc2)C(=O)N(C)[C@@H](C)C(=O)N[C@@H](CC(N)=O)C(=O)N2CCC[C@H]2C(=O)N[C@@H](CNc2nc(Cl)nc3[nH]c4cc(C)ccc4c23)C(=O)N[C@@H](CC(C)C)C(=O)N2C[C@H](O)C[C@H]2C(=O)N[C@@H](Cc2c[nH]c3ccccc23)C(=O)N[C@@H](CCN)C(=O)N[C@@H](Cc2cn(CC(=O)O)c3ccccc23)C(=O)N1C [Compound 21007] ({CH2CO}-Y[NMeA]NP[Dap](X22)L[Hyp]W[Dab][Trp(1-CH2COOH)][NMeNle][NMeNle]LCG-NH2; thioether N-14) |
| 2.4 nM | CCCC[C@H]1C(=O)N(C)[C@@H](CCCC)C(=O)N[C@@H](CC(C)C)C(=O)N[C@H](C(=O)NCC(N)=O)CSCC(=O)N[C@@H](Cc2ccc(O)cc2)C(=O)N(C)[C@@H](C)C(=O)N[C@@H](CC(N)=O)C(=O)N2CCC[C@H]2C(=O)N[C@@H](CNc2nc3c(nc(Cl)c4ncn(C)c43)s2)C(=O)N[C@@H](CC(C)C)C(=O)N2C[C@H](O)C[C@H]2C(=O)N[C@@H](Cc2c[nH]c3ccccc23)C(=O)N[C@@H](CCN)C(=O)N[C@@H](Cc2cn(CC(=O)O)c3ccccc23)C(=O)N1C [Compound 21001] ({CH2CO}-Y[NMeA]NP[Dap](X8)L[Hyp]W[Dab][Trp(1-CH2COOH)][NMeNle][NMeNle]LCG-NH2; thioether N-14) |
| 5.6 nM | CCCC[C@H]1C(=O)N(C)[C@@H](CCCC)C(=O)N[C@@H](CC(C)C)C(=O)N[C@H](C(=O)NCC(N)=O)CSCC(=O)N[C@@H](Cc2ccc(O)cc2)C(=O)N(C)[C@@H](C)C(=O)N[C@@H](CC(N)=O)C(=O)N2CCC[C@H]2C(=O)N[C@@H](CNc2nc3ccccc3s2)C(=O)N[C@@H](CC(C)C)C(=O)N2C[C@H](O)C[C@H]2C(=O)N[C@@H](Cc2c[nH]c3ccccc23)C(=O)N[C@@H](CCN)C(=O)N[C@@H](Cc2cn(CC(=O)OC)c3ccccc23)C(=O)N1C [Compound 11004] ({CH2CO}-Y[NMeA]NP[Dap](X1)L[Hyp]W[Dab][Trp(1-CH2CO2Me)][NMeNle][NMeNle]LCG-NH2; thioether N-14) |
| 5.4 nM | CCCC[C@H]1C(=O)N(C)[C@@H](CCCC)C(=O)N[C@@H](CC(C)C)C(=O)N[C@H](C(=O)NCC(N)=O)CSCC(=O)N[C@@H](Cc2ccc(O)cc2)C(=O)N(C)[C@@H](C)C(=O)N[C@@H](CC(N)=O)C(=O)N2CCC[C@H]2C(=O)N[C@@H](CNc2nccc(OC)n2)C(=O)N[C@@H](CC(C)C)C(=O)N2C[C@H](O)C[C@H]2C(=O)N[C@@H](Cc2c[nH]c3ccccc23)C(=O)N[C@@H](CCN)C(=O)N[C@@H](Cc2cn(CC(=O)O)c3ccccc23)C(=O)N1C [Compound 1001] ({CH2CO}-Y[NMeA]NP[Dap](X11)L[Hyp]W[Dab][Trp(1-CH2COOH)][NMeNle][NMeNle]LCG-NH2; thioether N-14) |
